Test results from patent US10130693B2, “Peptides, combination of peptides and scaffolds for use in immunotherapeutic treatment of various cancers” (Immatics Biotechnologies GmbH, priority 2015, dated 2018).

Key:
[1] = tested on: CD8+ T cells; assay: In vitro immunogenicity: T-cell priming with aAPCs loaded with HLA-A*02 peptide/MHC and anti-CD28, multimer staining; format: cell-based, human; conditions: HLA-A*02 peptides
Excerpt: In order to obtain information regarding the immunogenicity of the TUMAPs of the present invention, the inventors performed investigations using an in vitro T-cell priming assay based on repeated stimulations of CD8+ T cells with artificial antigen presenting cells (aAPCs) loaded with peptide/MHC complexes and anti-CD28 antibody.
In order to perform in vitro stimulations by artificial antigen presenting cells loaded with peptide-MHC complex (pMHC) and anti-CD28 antibody, the inventors first isolated CD8+ T cells from fresh HLA-A*02 leukapheresis products via positive selection using CD8 microbeads (Miltenyi Biotec, Bergisch-Gladbach, Germany) of healthy donors obtained from the University clinics Mannheim, Germany, after informed consent.
PBMCs and isolated CD8+ lymphocytes were incubated in T-cell medium (TCM) until use consisting of RPMI-Glutamax (Invitrogen, Karlsruhe, Germany) supplemented with 10% heat inactivated human AB serum (PAN-Biotech, Aidenbach, Germany), 100 U/ml Penicillin/100 μg/ml Streptomycin (Cambrex, Cologne, Germany), 1 mM sodium pyruvate (CC Pro, Oberdorla, Germany), 20 μg/ml Gentamycin (Cambrex). 2.5 ng/ml IL-7 (PromoCell, Heidelberg, Germany) and 10 U/ml IL-2 (Novartis Pharma, Nürnberg, Germany) were also added to the TCM at this step.
Generation of pMHC/anti-CD28 coated beads, T-cell stimulations and readout was performed in a highly defined in vitro system using four different pMHC molecules per stimulation condition and 8 different pMHC molecules per readout condition.
The purified co-stimulatory mouse IgG2a anti human CD28 Ab 9.3 (Jung et al., 1987) was chemically biotinylated using Sulfo-N-hydroxysuccinimidobiotin as recommended by the manufacturer (Perbio, Bonn, Germany). Beads used were 5.6 μm diameter streptavidin coated polystyrene particles (Bangs Laboratories, Illinois, USA).
pMHC used for positive and negative control stimulations were A*0201/MLA-001 (peptide […] (SEQ ID NO. 418) from modified Melan-A/MART-1) and A*0201/DDX5-001 ([…] from DDX5, SEQ ID NO. 419), respectively.
800.000 beads/200 μl were coated in 96-well plates in the presence of 4×12.5 ng different biotin-pMHC, washed and 600 ng biotin anti-CD28 were added subsequently in a volume of 200 μl. Stimulations were initiated in 96-well plates by co-incubating 1×10^6 CD8+ T cells with 2×10^5 washed coated beads in 200 μl TCM supplemented with 5 ng/ml IL-12 (PromoCell) for 3 days at 37° C. Half of the medium was then exchanged by fresh TCM supplemented with 80 U/ml IL-2 and incubating was continued for 4 days at 37° C. This stimulation cycle was performed for a total of three times. For the pMHC multimer readout using 8 different pMHC molecules per condition, a two-dimensional combinatorial coding approach was used as previously described (Andersen et al., 2012) with minor modifications encompassing coupling to 5 different fluorochromes. Finally, multimeric analyses were performed by staining the cells with Live/dead near IR dye (Invitrogen, Karlsruhe, Germany), CD8-FITC antibody clone SK1 (BD, Heidelberg, Germany) and fluorescent pMHC multimers. For analysis, a BD LSRII SORP cytometer equipped with appropriate lasers and filters was used. Peptide specific cells were calculated as percentage of total CD8+ cells. Evaluation of multimeric analysis was done using the FlowJo software (Tree Star, Oregon, USA). In vitro priming of specific multimer+CD8+ lymphocytes was detected by comparing to negative control stimulations.

[2] = molecular target: HLA-A*02:01 (Homo sapiens, UniProt P04439, D140Y/D185E/D98H/E176V/E277Q/G131W/G231S/I119V/I121R/I166T/I218V/L300P/L318F/N151K/N90K/P208A/P217A/Q86G/Q94H/R138H/R169H/T345S); assay: MHC binding assay, UV-ligand exchange with beta2m ELISA (exchange yield), HLA-A*02; conditions: binding to HLA-A*02 ranged by peptide exchange yield
Excerpt: Candidate peptides for T cell based therapies according to the present invention were further tested for their MHC binding capacity (affinity). The individual peptide-MHC complexes were produced by UV-ligand exchange, where a UV-sensitive peptide is cleaved upon UV-irradiation, and exchanged with the peptide of interest as analyzed. Only peptide candidates that can effectively bind and stabilize the peptide-receptive MHC molecules prevent dissociation of the MHC complexes. To determine the yield of the exchange reaction, an ELISA was performed based on the detection of the light chain (β2m) of stabilized MHC complexes. The assay was performed as generally described in Rodenko et al. (Rodenko et al., 2006).
96 well MAXISorp plates (NUNC) were coated over night with 2 ug/ml streptavidin in PBS at room temperature, washed 4× and blocked for 1 h at 37° C. in 2% BSA containing blocking buffer. […] Peptide-MHC monomers of the UV-exchange reaction were diluted 100 fold in blocking buffer. Samples were incubated for 1 h at 37° C., washed four times, incubated with 2 ug/ml HRP conjugated anti-β2m for 1h at 37° C., washed again and detected with TMB solution that is stopped with […]. Absorption was measured at 450 nm. Candidate peptides that show a high exchange yield (preferably higher than 50%, most preferred higher than 75%) are generally preferred for a generation and production of antibodies or fragments thereof, and/or T cell receptors or fragments thereof, as they show sufficient avidity to the MHC molecules and prevent dissociation of the MHC complexes.

With “2 (ALYGKLLKL; listed as Homo sapiens) [compound 2]” the “in vitro immunogenicity, Wells positive [%]” value (from here on “in vitro immunogenicity … [%]”) [1] was “++++ (>=70% = ++++)” and the “Peptide exchange (MHC class I binding score)” value (shortened to “Peptide exchange”) [2] was “+++ (50%-75% = +++)”.

For “7 (AAAAKVPEV; listed as Homo sapiens) [compound 7]”, the “in vitro immunogenicity … [%]” value [1] was “+ (<20% = +)” and the “Peptide exchange” value [2] was “+++ (50%-75% = +++)”.

“8 (KLGPFLLNA; listed as Homo sapiens) [compound 8]” was tested, and the “in vitro immunogenicity … [%]” value [1] was “+++ (50%-69% = +++)” and the “Peptide exchange” value [2] was “+++ (50%-75% = +++)”.

With “9 (FLGDYVENL; listed as Homo sapiens) [compound 9]” the “in vitro immunogenicity … [%]” value [1] was “+ (<20% = +)” and the “Peptide exchange” value [2] was “++ (20%-49% = ++)”.

For “17 (ILHEHHIFL; listed as Homo sapiens) [compound 17]”, the “in vitro immunogenicity … [%]” value [1] was “+ (<20% = +)” and the “Peptide exchange” value [2] was “+++ (50%-75% = +++)”.

“43 (LLWAGPVTA; listed as Homo sapiens) [compound 43]” was tested, and the “in vitro immunogenicity … [%]” value [1] was “++++ (>=70% = ++++)” and the “Peptide exchange” value [2] was “+++ (50%-75% = +++)”.

In the case of “322 (ALVSGGVAQA; listed as Homo sapiens) [compound 322]”, the “in vitro immunogenicity … [%]” value [1] is reported as “+ (<20% = +)” and the “Peptide exchange” value [2] is reported as “+++ (50%-75% = +++)”.

For “331 (AIWKELISL; listed as Homo sapiens) [compound 331]”, the “in vitro immunogenicity … [%]” value [1] was “++ (20%-49% = ++)” and the “Peptide exchange” value [2] was “+++ (50%-75% = +++)”.
